# Values of other authors in article PMC6105164 (Cancer Chemotherapy and Pharmacology, 2018).
# Key:
# prenylation of RAS = test system: prenylation of RAS; parameters: method as in PMID 22020205, PMID 15084616, PMID 15459217; details: cited from earlier work
# [1] = test system: patients with KRAS mutations; parameters: method as in PMID 24024839, PMID 18316791, PMID 23182985; details: cited from earlier work
Compound,activity in clinical trials (prenylation of RAS),efficacy [1]
Cn1cncc1[C@@](N)(c1ccc(Cl)cc1)c1ccc2c(c1)c(-c1cccc(Cl)c1)cc(=O)n2C [tipifarnib],a little activity,–
panitumumab: EGF receptor inhibitor,–,a little efficacy
